Assay [1] deals with IL-1β secretion from human whole blood. Put plainly: Inhibition of IL-1β secretion from whole blood. Particulars: human whole blood diluted 1:2, LPS 5 ng/ml, 18 hours, ELISA. The assay is classed as cell-based. Here is the method: Human blood is freshly drawn from healthy donors and diluted 1:2 in PBS. To 500 μl of diluted blood […] of prediluted test compound in RPMI medium and […] LPS (5 ng/ml final concentration on the plate) are added (LPS, Serotype 0111:B4, Sigma L3012). After stimulation for 18 hours supernatants are collected and assayed for IL-1β levels using the appropriate ELISA kit (R&D systems).
A general note: An ELISA detects its analyte on a solid surface through an enzyme-linked reagent.

The subject of another assay is Jurkat E6.1 cells. Description: Anti-Fas induced apoptosis assay. The assay is classed as cell-based. Particulars: Homo sapiens, anti-Fas antibody CH-11 10 ng/ml, 16-18 hrs, DNA fragmentation. From the text: Cellular apoptosis may be induced by the binding of Fas ligand (FasL) to its receptor, CD95 (Fas). CD95 is one of a family of related receptors, known as death receptors, which can trigger apoptosis in cells via activation of the caspase enzyme cascade. The process is initiated by the binding of the adapter molecule FADD/MORT-1 to the cytoplasmic domain of the CD-95 receptor-ligand complex. Caspase-8 then binds FADD and becomes activated, initiating a cascade of events that involve the activation of downstream caspases and subsequent cellular apoptosis. Apoptosis can also be induced in cells expressing CD95 e.g., the Jurkat E6.1 T cell lymphoma cell line, using an antibody, rather than FasL, to crosslink the cell surface CD95. Anti-Fas-induced apoptosis is also triggered via the activation of caspase-8. This provides the basis of a cell based assay to screen compounds for inhibition of the caspase-8-mediated apoptotic pathway.
Jurkat E6.1 cells are cultured in complete medium consisting of RPMI-1640 (Sigma No)+10% foetal calf serum (Gibco BRL No. 10099-141)+2 mM L-glutamine (Sigma No. G-7513). The cells are harvested in log phase of growth. 100 ml of cells at 5-8×10^5 cells/ml are transferred to sterile 50 ml Falcon centrifuge tubes and centrifuged for 5 minutes at 100×g at room temperature. The supernatant is removed and the combined cell pellets resuspended in 25 ml of complete medium. The cells are counted and the density adjusted to 2×10^6 cells/ml with complete medium.
The test compound is dissolved in dimethyl sulfoxide (DMSO)(Sigma No. D-2650) to give a 100 mM stock solution. This is diluted to 400 μM in complete medium, then serially diluted in a 96-well plate prior to addition to the cell assay plate.
100 μl of the cell suspension ([…]) is added to each well of a sterile 96-well round-bottomed cluster plate (Costar No. 3790). 50 μl of compound solution at the appropriate dilution and 50 μl of anti-Fas antibody, clone CH-11 (Upstate, Cat No. 1 544 675) at a final concentration of 10 ng/ml, are added to the wells. Control wells are set up minus antibody and minus compound but with a serial dilution of DMSO as vehicle control. The plates are incubated for 16-18 hrs at 37° C. in 5% CO2 and 95% humidity.
Apoptosis of the cells is measured by the quantitation of DNA fragmentation using a ‘Cell Death Detection Assay’ from Roche diagnostics, No. 1544 675. After incubation for 16-18 hrs the assay plates are centrifuged at 100×g at room temperature for 5 minutes. 150 μl of the supernatant are removed and replaced by 150 μl of fresh complete medium. The cells are then harvested and 200 μl of the lysis buffer supplied in the assay kit are added to each well. The cells are triturated to ensure complete lysis and incubated for 30 minutes at 4° C. The plates are then centrifuged at 1900×g for 10 minutes and the supernatants diluted 1:20 in the incubation buffer provided. 100 μl of this solution is then assayed according to the manufacturer's instructions supplied with the kit. OD405 nm is measured 20 minutes after addition of the final substrate in a SPECTRAmax Plus plate reader (Molecular Devices). OD405 nm is plotted versus compound concentration and the IC50 values for the compounds are calculated using the curve-fitting program SOFTmax Pro (Molecular Devices) using the four parameter fit option.

For another assay, the system named is rat cortical neurons. Put plainly: Hypoxia-induced apoptosis of rat cortical neurons. The assay is classed as cell-based, Wistar rat. Particulars: Cortical neurone, 95% N2/5% CO2, Cell Death Detection ELISA (DNA fragmentation). Here is the method: Cortical neurons are dissociated from Wistar rat embryos (E17) by a modification of the procedure of Rogers et al. 1997, Brain Res. Bulletin, 44:131. Briefly, cerebral cortices are isolated aseptically from 15-20 Wistar rat embryos. A cell suspension is prepared by mincing the cerebral cortices and digesting them with papain. Cells are washed with ovomucoid enzyme inhibitor and DNaseI and plated onto Poly-D lysine coated plates in high glucose DMEM containing 10% heat-inactivated fetal calf serum, L-glutamine, penicillin and streptomycin. The yield of neurons is […] per embryo and they are 80-90% viable as assessed by Trypan blue exclusion.
The neurons are cultured in complete medium at 37° C. in a normal atmosphere for 48 hours prior to the hypoxia experiments. For hypoxia, the normal cell medium is replaced by oxygen-depleted serum-free medium. Cells are incubated in an atmosphere of 95% N2/5% CO2 for various lengths of time. Compounds are dissolved in DMSO at 100 mM then diluted in medium and added to the culture from time=0. The level of apoptosis is measured using a Cell Death Detection ELISA kit (Roche) which detects DNA fragmentation. Plates are read at 405 nm. Controls included cells cultured in aerobic conditions in serum-containing medium (+serum) and cells cultured in aerobic conditions in serum-deprived medium (−serum).

Structures are written as SMILES. Bounds are passed on as bounds.

With `CC[C@@H](C(=O)N[C@@H](CC(=O)O)C(=O)COc1c(F)c(F)cc(F)c1F)n1cccc(NS(=O)(=O)CC)c1=O` [Compound 18, (S,S)-3-[2-(3-Ethanesulfonylamino-2-oxo-2H-pyridin-1-yl)-butyrylamino]-4-oxo-5-(2,3,5,6-tetrafluoro-phenoxy)-pentanoic acid], the IC50 (usually the concentration at which inhibition is half-maximal) in assay [1] is 500 to 5000 nM; in the assay on Jurkat E6.1 cells, less than 500 nM; in the assay with rat cortical neurons it was 1000 to 10000 nM.
On the same counts, the results for `CCCS(=O)(=O)Nc1cccn([C@@H](CC)C(=O)N[C@@H](CC(=O)O)C(=O)COc2c(F)c(F)cc(F)c2F)c1=O` [Compound 19, (S,S)-4-Oxo-3-{2-[2-oxo-3-(propane-1-sulfonylamino)-2H-pyridin-1-yl]-butyrylamino}-5-(2,3,5,6-tetrafluoro-phenoxy)-pentanoic acid] are 500 to 5000 nM, less than 500 nM and 1000 to 10000 nM.
Consider `CC[C@@H](C(=O)N[C@@H](CC(=O)O)C(=O)COc1c(F)c(F)cc(F)c1F)n1cc(C(F)(F)F)cc(NS(=O)(=O)CC)c1=O` [Compound 22, (S,S)-3-[2-(3-Ethanesulfonylamino-2-oxo-5-trifluoromethyl-2H-pyridin-1-yl)-butyrylamino]-4-oxo-5-(2,3,5,6-tetrafluoro-phenoxy)-pentanoic acid], for which the IC50 in assay [1] was 500 to 5000 nM; in the assay with Jurkat E6.1 cells, less than 500 nM; in the assay with rat cortical neurons it was less than 1000 nM.
Regarding `CCC(=O)Nc1cccn([C@@H](CC)C(=O)NC(CC(=O)O)C(=O)CF)c1=O` (stereo partly drawn) [Compound 29, (S)-5-Fluoro-4-oxo-3-[2-(2-oxo-3-propionylamino-2H-pyridin-1-yl)-butyrylamino]-pentanoic acid], the IC50 in assay [1] is less than 500 nM; with Jurkat E6.1 cells, less than 500 nM; with rat cortical neurons it was 1000 to 10000 nM.
For `CCC(=O)Nc1cccn([C@@H](CC(C)C)C(=O)NC(CC(=O)O)C(=O)CF)c1=O` (stereo partly drawn) [Compound 36, (S)-5-Fluoro-3-[4-methyl-2-(2-oxo-3-propionylamino-2H-pyridin-1-yl)-pentanoylamino]-4-oxo-pentanoic acid], the IC50 in assay [1] fell in the range of 500 to 5000 nM; with Jurkat E6.1 cells, 500 to 2000 nM; in the assay on rat cortical neurons it was 1000 to 10000 nM.

Source of the values: patent US7960415B2, “Caspase inhibitors and uses thereof” (Vertex Pharmaceutical Incoporated, priority 2003, dated 2011).
